Laboratory results published in ChEMBL document CHEMBL6083252, “Synthesis and evaluation of novel tetrahydroisoquinoline-benzo[h]chromen-4-one conjugates as dual ABCB1/CYP1B1 inhibitors for overcoming MDR in cancer” (Bioorg Med Chem, 2024).
Active and inactive are the calls of the source. No cut-off for these calls is given here.

Key:
SW-620 = experiment: Cytotoxicity against human SW620 cells assessed as inhibition of cell growth at 5 uM incubated for 48 hrs by CCK8 assay; type: functional; parameters: scale not given: the % may be the effect or the level left
SW620/AD300 [1] = experiment: Cytotoxicity against human SW620/AD300 cells assessed as inhibition of cell growth at 5 uM incubated for 48 hrs by CCK8 assay; type: functional; parameters: scale not given: the % may be the effect or the level left
SW620/AD300 [2] = experiment: Reversal of multidrug resistance in human SW620/AD300 cells assessed as reversal fold by measuring ratio of doxorubicin IC50 to doxorubicin IC50 in presence of test compound at 5 uM; type: functional
SW620/AD300 [3] = experiment: Reversal of multidrug resistance in human SW620/AD300 cells assessed as decrease in doxorubicin IC50 at 5 uM in presence of doxorubicin (reference value: 11.10 +/- 1.61 uM); type: functional, cell-based
[4] = tested on: MKN45-DDP-R (Cisplatin-resistant MKN45 cells); experiment: Effect on lipid peroxidation level in human MKN45-DDP-R cells at 10 uM incubated for 24 hrs by BODIPY 581/591 C11 probe based flow cytometry assay; type: functional, cell-based
SW620/AD300 [5] = experiment: Effect on P-gp protein expression in human SW620/AD300 cells at 5 to 30 uM by Western blotting assay; type: functional, cell-based; conditions: dose 5-30 µM
[6] = Induction of apoptosis in human MKN45-DDP-R cells assessed as early apoptotic cells at 6 uM incubated for 48 hrs by Annexin V-FITC/PI staining based flow cytometry analysis (reference value: 3.70%); type: functional, MKN45-DDP-R (Cisplatin-resistant MKN45 cells)
[7] = tested on: MKN45-DDP-R (Cisplatin-resistant MKN45 cells); experiment: Upregulation of PUMA expression level in human MKN45-DDP-R cells at 6 to 12 uM incubated for 48 hrs by Western blotting assay; type: functional, cell-based; conditions: dose 6-12 µM
[8] = tested on: MKN45-DDP-R (Cisplatin-resistant MKN45 cells); experiment: Inhibition of cell migration in human MKN45-DDP-R cells at over 1 uM incubated for 24 hrs by scratch wound healing based inverted microscopic analysis; type: functional
[9] = Induction of apoptosis in human MKN45-DDP-R cells assessed as late apoptotic cells at 6 uM incubated for 48 hrs by Annexin V-FITC/PI staining based flow cytometry analysis (reference value: 0.89%); type: functional, MKN45-DDP-R (Cisplatin-resistant MKN45 cells)
[10] = Induction of apoptosis in human MKN45-DDP-R cells assessed as early apoptotic cells at 3 uM incubated for 48 hrs by Annexin V-FITC/PI staining based flow cytometry analysis (reference value: 3.70%); type: functional, MKN45-DDP-R (Cisplatin-resistant MKN45 cells)
[11] = Induction of apoptosis in human MKN45-DDP-R cells assessed as necrotic cells at 3 uM incubated for 48 hrs by Annexin V-FITC/PI staining based flow cytometry analysis (reference value: 0.76%); type: functional, MKN45-DDP-R (Cisplatin-resistant MKN45 cells)
[12] = tested on: MKN45-DDP-R (Cisplatin-resistant MKN45 cells); experiment: Inhibition of colony formation in human MKN45-DDP-R cells assessed as decrease in colony number incubated for 48 hrs followed by media replacement and cultured for 12 days by crystal violet staining based assay; type: functional, cell-based; conditions: dose 1-3 µM
[13] = Induction of apoptosis in human MKN45-DDP-R cells assessed as late apoptotic cells at 3 uM incubated for 48 hrs by Annexin V-FITC/PI staining based flow cytometry analysis (reference value: 0.89%); type: functional, MKN45-DDP-R (Cisplatin-resistant MKN45 cells)
SW620/AD300 [14] = experiment: Effect on P-gp protein expression in human SW620/AD300 cells at 5 uM incubated for 24 hrs by immunofluorescence assay; type: functional, cell-based
[15] = tested on: MKN45-DDP-R (Cisplatin-resistant MKN45 cells); experiment: Inhibition of colony formation in human MKN45-DDP-R cells assessed as decrease in colony size incubated for 48 hrs followed by media replacement and cultured for 12 days by crystal violet staining based assay; type: functional, cell-based; conditions: dose 1-3 µM
[16] = Induction of apoptosis in human MKN45-DDP-R cells assessed as necrotic cells at 6 uM incubated for 48 hrs by Annexin V-FITC/PI staining based flow cytometry analysis (reference value: 0.76%); type: functional, MKN45-DDP-R (Cisplatin-resistant MKN45 cells)
[17] = Induction of apoptosis in human MKN45-DDP-R cells assessed as viable cells at 3 uM incubated for 48 hrs by Annexin V-FITC/PI staining based flow cytometry analysis (reference value: 94.7%); type: functional; conditions: MKN45-DDP-R (Cisplatin-resistant MKN45 cells), read-out: Activity
SW620/AD300 [18] = experiment: Cytotoxicity against human SW620/AD300 cells assessed as inhibition of cell growth incubated for 48 hrs by CCK8 assay; type: functional, cell-based; conditions: SW620/AD300, 48 h
[19] = Induction of apoptosis in human MKN45-DDP-R cells assessed as viable cells at 6 uM incubated for 48 hrs by Annexin V-FITC/PI staining based flow cytometry analysis (reference value: 94.7%); type: functional; conditions: MKN45-DDP-R (Cisplatin-resistant MKN45 cells), read-out: Activity
[20] = Cytotoxicity against human MKN45-DDP-R cells assessed as inhibition of cell growth incubated for 48 hrs by CCK8 assay; type: functional, cell-based; conditions: MKN45-DDP-R (Cisplatin-resistant MKN45 cells)
[21] = Cytotoxicity against human DOX-SW620/AD300-1B1 cells assessed as inhibition of cell growth incubated for 48 hrs by CCK8 assay; type: functional, cell-based; conditions: DOX-SW620/AD300-1B1, 48 h
[22] = Reversal of docetaxel resistance in human DU-145 cells transfected with CYP1B1 assessed as decrease in docetaxel IC50 at 5 uM (reference value: 23.5 +/- 3.04 nM); type: functional, cell-based
Cytochrome P450 1B1 = biological target: T1, Cytochrome P450 1B1 (Homo sapiens, UniProt Q16678); experiment: Inhibition of recombinant human CYP1B1 at 0.5 uM using 7-Ethoxyresorufin as substrate incubated for 35 mins in presence of NADPH by microplate reader assay; type: ADME; conditions: recombinant enzyme
T1 sequence (Q16678 whole entry): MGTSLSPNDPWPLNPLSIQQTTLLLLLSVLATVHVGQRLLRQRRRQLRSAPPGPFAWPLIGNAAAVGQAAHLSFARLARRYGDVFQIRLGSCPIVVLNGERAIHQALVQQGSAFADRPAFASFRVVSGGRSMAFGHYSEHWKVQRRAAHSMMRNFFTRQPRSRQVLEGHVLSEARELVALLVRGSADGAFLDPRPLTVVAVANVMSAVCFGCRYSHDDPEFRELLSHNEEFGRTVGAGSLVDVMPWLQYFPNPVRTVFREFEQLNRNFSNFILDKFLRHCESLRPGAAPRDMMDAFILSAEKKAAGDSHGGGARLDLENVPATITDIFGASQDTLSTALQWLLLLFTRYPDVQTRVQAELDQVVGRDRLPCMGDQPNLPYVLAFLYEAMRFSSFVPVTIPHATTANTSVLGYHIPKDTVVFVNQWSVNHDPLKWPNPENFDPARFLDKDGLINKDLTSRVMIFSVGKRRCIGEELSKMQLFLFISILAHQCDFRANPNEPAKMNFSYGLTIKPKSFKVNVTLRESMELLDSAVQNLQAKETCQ

[23] = Reversal of drug resistance in human DOX-SW620/AD300-1B1 cells assessed as decrease in doxorubicin IC50 at 5 uM after 48 hrs in presence of doxorubicin by CCK8 assay (reference value: 64.5 +/- 30 uM); type: functional, cell-based; conditions: DOX-SW620/AD300-1B1, 48 h
[24] = biological target: ATP-dependent translocase ABCB1 (Homo sapiens, UniProt P08183); experiment: Inhibition of P-gp in human SW620/AD300 cells assessed as increase in intracellular Rh123 accumulation at 5 uM incubated for 4 hrs by flow cytometry analysis; type: cell-based; conditions: sw620/ad300, 4 h
DU-145 = experiment: Cytotoxicity against human DU-145 cells assessed as inhibition of cell growth at 5 uM incubated for 48 hrs by CCK8 assay; type: functional, cell-based
[25] = tested on: MKN45-DDP-R (Cisplatin-resistant MKN45 cells); experiment: Reversal of cisplatin resistance in human MKN45-DDP-R cells expressing CYP1B1 at 5 uM in presence of cisplatin; type: functional, cell-based
SW620/AD300 [26] = experiment: Downregulation of P-gp expression in human SW620/AD300 cells upto 30 uM incubated for 24 hrs by Western blotting assay; type: functional, cell-based
SW620/AD300 [27] = experiment: Downregulation of P-gp expression in human SW620/AD300 cells at 10 uM incubated for 24 hrs by immunofluorescence assay; type: functional, cell-based

Sequence of ATP-dependent translocase ABCB1 (P08183 whole entry): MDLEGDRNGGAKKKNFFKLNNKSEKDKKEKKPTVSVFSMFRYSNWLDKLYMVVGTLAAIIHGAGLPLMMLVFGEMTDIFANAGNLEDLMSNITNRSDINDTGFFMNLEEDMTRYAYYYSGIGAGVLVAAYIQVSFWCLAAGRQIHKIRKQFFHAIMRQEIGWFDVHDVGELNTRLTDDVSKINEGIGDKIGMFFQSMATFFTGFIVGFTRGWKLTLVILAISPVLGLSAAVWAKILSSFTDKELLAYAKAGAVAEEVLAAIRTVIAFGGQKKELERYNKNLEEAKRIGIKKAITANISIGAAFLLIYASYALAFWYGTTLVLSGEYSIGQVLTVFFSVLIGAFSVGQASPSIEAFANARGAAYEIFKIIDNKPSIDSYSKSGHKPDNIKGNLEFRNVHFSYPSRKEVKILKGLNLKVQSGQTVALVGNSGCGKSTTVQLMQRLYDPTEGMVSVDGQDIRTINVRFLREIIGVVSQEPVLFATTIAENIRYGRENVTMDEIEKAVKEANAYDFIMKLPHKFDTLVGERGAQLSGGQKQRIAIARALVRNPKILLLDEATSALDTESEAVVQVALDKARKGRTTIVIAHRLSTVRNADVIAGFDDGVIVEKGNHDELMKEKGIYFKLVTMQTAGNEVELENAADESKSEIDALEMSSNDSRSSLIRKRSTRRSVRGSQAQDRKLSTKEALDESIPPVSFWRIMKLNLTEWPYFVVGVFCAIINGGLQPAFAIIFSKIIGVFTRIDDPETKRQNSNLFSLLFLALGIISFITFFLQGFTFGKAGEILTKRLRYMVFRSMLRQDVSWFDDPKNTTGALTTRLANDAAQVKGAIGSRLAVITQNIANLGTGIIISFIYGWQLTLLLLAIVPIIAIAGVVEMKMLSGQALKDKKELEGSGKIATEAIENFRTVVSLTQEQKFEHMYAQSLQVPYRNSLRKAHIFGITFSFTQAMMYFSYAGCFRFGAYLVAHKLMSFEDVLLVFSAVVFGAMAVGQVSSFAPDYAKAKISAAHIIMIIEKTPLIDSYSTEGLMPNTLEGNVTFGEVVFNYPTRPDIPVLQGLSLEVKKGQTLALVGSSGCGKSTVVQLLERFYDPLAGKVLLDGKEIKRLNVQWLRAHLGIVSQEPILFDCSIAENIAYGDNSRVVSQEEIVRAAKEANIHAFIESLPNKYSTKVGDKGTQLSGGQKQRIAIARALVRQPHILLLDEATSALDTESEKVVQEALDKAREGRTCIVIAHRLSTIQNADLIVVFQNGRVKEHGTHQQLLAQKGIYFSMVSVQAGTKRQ

| IC50 (SW620/AD300 [3]) [nM] | IC50 [22] [nM] | Structure (SMILES) | Activity (SW-620) [%] | Activity (SW620/AD300 [1]) [%] | Ratio IC50 (SW620/AD300 [2]) | Activity (DU-145) | further results |
| --- | --- | --- | --- | --- | --- | --- | --- |
| 840 |  | COc1cc2c(cc1OC)CN(C(=O)C1CCN(C(=O)c3cc(=O)c4ccc5ccccc5c4o3)CC1)CC2 | 26.93 | 14.46 | 13.2 |  |  |
| 5250 |  | COc1cc2c(cc1OC)CN(CCNC(=O)c1cc(=O)c3ccc4ccccc4c3o1)CC2 | 51.29 | 55.04 | 2.1 |  | Activity [4]: inactive; Activity (SW620/AD300 [5]): inactive; Activity [6]: 34.9%; Activity [7]: Active; inhibition [8]: Active; Activity [9]: 6.41%; Activity [10]: 15%; Activity [11]: 0.58%; inhibition [12]: Dose-dependent-effect; Activity [13]: 3.37%; Activity (SW620/AD300 [14]): inactive; inhibition [15]: Dose-dependent-effect; Activity [16]: 0.73%; viability at 3 µM [17]: 81.1%; IC50 (SW620/AD300 [18]): 9.1 µM; viability at 6 µM [19]: 58%; IC50 [20]: 6.58 µM |
| 2200 |  | COc1cc2c(cc1OC)CN(C(=O)C1CCN(C(=O)c3cc(=O)c4cc(OC)c5ccccc5c4o3)CC1)CC2 | 13.03 | 4.05 | 5 |  |  |
|  |  | COc1cccc2c1C(=O)c1c(O)c3c(c(O)c1C2=O)C[C@@](O)(C(=O)CO)C[C@@H]3O[C@H]1C[C@H](N)[C@H](O)[C@H](C)O1 [DOXORUBICIN] | 0.29 |  |  |  | IC50 [21]: 64.5 µM; IC50 (SW620/AD300 [18]): 11.1 µM |
| 280 | 8.7 | COc1ccc(C(=O)Nc2ccccc2C(=O)Nc2ccc(CCN3CCc4cc(OC)c(OC)cc4C3)cc2)cc1OC | 8.91 | 6.53 | 39.6 | Active; Lower Cytotoxicity Than Anf And Wk-X-38 | inhibition (INH) (Cytochrome P450 1B1): Active; IC50 [23]: 40 µM; inhibition (INH) [24]: Active |
| 2290 | 3.41 | COc1cc2c(cc1OC)CN(C(=O)Cn1cc(-c3ccc(-c4cc(=O)c5ccc6ccccc6c5o4)cc3)nn1)CC2 | 22.19 | 26.85 | 4.8 | Active; Lower Cytotoxicity Than Anf And Wk-X-37 | Activity [25]: Active |
| 470 |  | COc1cc2c(cc1OC)CN(CCNC(=O)c1cc(=O)c3cc(OC)c4ccccc4c3o1)CC2 | 28.94 | 34.64 | 23.6 |  |  |
| 7480 | 11.4 | COc1cc2c(cc1OC)CN(C(=O)c1cc(=O)c3cc(OC)c4ccccc4c3o1)CC2 | 4.62 | 3.49 | 1.4 | Active; Lower Cytotoxicity Than Anf And Wk-X-35 |  |
| 250 | 5.69 | COc1cc2c(cc1OC)CN(CCc1ccc(NC(=O)c3cc(=O)c4cc(OC)c5ccccc5c4o3)cc1)CC2 | 32.77 | 17.28 | 44.4 | Active; Lower Cytotoxicity Than Anf And Wk-X-36 | Activity (SW620/AD300 [26]): inactive; Activity (SW620/AD300 [27]): inactive; IC50 [23]: 4.7 µM; Activity [25]: Active |
| 320 | 9.6 | COc1cc2c(cc1OC)CN(CCc1ccc(NC(=O)c3ccccc3NC(=O)c3cc(=O)c4ccc5ccccc5c4o3)cc1)CC2 | 13.34 | 7.13 | 34.7 | Active; Lower Cytotoxicity Than Anf And Wk-X-34 | Activity (SW620/AD300 [26]): inactive; Activity (SW620/AD300 [27]): inactive |
| 6500 |  | COc1cc2c(cc1OC)CN(C(=O)c1cc(=O)c3ccc4ccccc4c3o1)CC2 | 8.82 | 15.57 | 1.7 |  |  |
| 660 |  | COc1cc2c(cc1OC)CN(CCN1CCN(C(=O)c3cc(=O)c4ccc5ccccc5c4o3)CC1)CC2 | 11.06 | 15.35 | 16.8 |  |  |
|  | 8.2 | O=c1cc(-c2ccccc2)oc2c1ccc1ccccc12 [ALPHA-NAPHTHOFLAVONE] |  |  |  | Active; Lower Cytotoxicity Than Anf And Wk-X-39 | inhibition (INH) (Cytochrome P450 1B1): Active; IC50 [23]: 2.4 µM |
| 400 |  | COc1cc2c(cc1OC)CN(CCc1ccc(NC(=O)c3cc(=O)c4ccc5ccccc5c4o3)cc1)CC2 | 13.57 | 20.08 | 27.8 |  |  |
